Test results: patent publication US11773381B2, “Cell penetrating peptide, conjugate comprising same, and composition comprising conjugate” (GemVax & KAEL CO., LTD., priority 2012, dated 2023)

test system: HeLa cell; experiment: Cell penetration of pep(CPP)-FITC conjugates in HeLa cell line, flow cytometry (FACS); type: cell-based, Homo sapiens; conditions: HeLa cells, 20 μM of each carrier peptide combined with FITC, 37° C. for an hour, control cells treated only FITC
Procedure: Homo sapiens cervix adenocarcinoma cell line as HeLa cell lines were purchased from ATCC (American Type Cell Culture). The cells were cultured in MEM supplemented with 10% fetal bovine serum (Invitrogen, USA), Earle's salts, non-essential amino acids, sodium pyruvate and 100 μg/ml penicillin and 10 units/ml streptomycin and cultured at 37° C., 5% CO2 incubator.
Flow cytometry and Confocal microscope analysis were performed to compare the between degree of cellular uptake of the cells were treated with SEQ ID NO: 1 to SEQ ID NO: 156, pep (CPP) and control.
The cell line was divided in a 6-well plate and cultured in a medium containing 10% fetal bovine serum (Invitrogen, USA), […] at 37° C., 5% CO2 incubator for 12 hours. After washing the cell line with PBS, starvation was induced in a Minimum Essential Medium for an hour. 20 μM of each carrier peptide was treated and cultured at 37° C. for an hour. After repeating the step of washing the cells with PBS for three times, Trypsin-EDTA was treated form 10 mins at 37° C. to separate the carrier peptide on the outside of the cell. cells were collected with refrigerated PBS and centrifugation was performed to repeat the step of washing the cells for three times. After then, the cells were suspended in 0.5 ml of PBS containing 4% Paraformaldehyde and fluorescence of the cells was analyzed using FACS Calibur (Becton Dickinson). The cellular uptake aspect of control and various peptides combined with FITC was compared and analyzed by MFI (Mean Fluorescence Intensity).
Analysis results shown in FIG. 1 to FIG. 23 are given in detail in Table 3 below.

Sequence | cellular uptake, MFI (Mean Fluorescence Intensity)
AAEHRLREEILAKFLHWLMS (listed as Homo sapiens) [pep134] | 78.05 ± 2.26
AAGPLPSEAVQWLCHQAFLL (listed as Homo sapiens) [pep103] | 126.88 ± 2.14
AERLTSRVKALFSVL (listed as Homo sapiens) [pep10] | 559.78 ± 3.41
AHGHVRKAFKSHVSTLTDLQ (listed as Homo sapiens) [pep145] | 11.97 ± 0.78
ALFSVLNYE (listed as Homo sapiens) [pep29] | 33.5 ± 2.48
ALFSVLNYER (listed as Homo sapiens) [pep15] | 35.61 ± 1.29
ALFSVLNYERARRPGLLGASVLGLDDIHRA [pep2] | 37.6 ± 1.89
ALLTSRLRFI (listed as Homo sapiens) [pep5] | 19.06 ± 1.33
AQCPYGVLLKTHCPLRAAVT (listed as Homo sapiens) [pep70] | 21.82 ± 1.76
ARRPGLLG (listed as Homo sapiens) [pep33] | 14.36 ± 1.63
ARRPGLLGA (listed as Homo sapiens) [pep26] | 14.81 ± 1.77
ATQARPPPHASGPRRRLGCE (listed as Homo sapiens) [pep59] | 18.58 ± 0.52
CGPPLYQLGAATQARPPPHA (listed as Homo sapiens) [pep116] | 20.5 ± 0.97
CPPVYAETKHFLYSSGDKEQ (listed as Homo sapiens) [pep66] | 20.7 ± 2.57
DARPPPAAPSFRQVSCLKEL (listed as Homo sapiens) [pep53] | 16.16 ± 0.66
DEALGGTAFVQMPAHGLFPW (listed as Homo sapiens) [pep153] | 31.72 ± 1.74
EAEVRQHREARPALL (listed as Homo sapiens) [pep40] | 11.63 ± 1.11
EARPALLTSRLRFIPKPDGL (listed as Homo sapiens) [pep138] | 16.43 ± 0.91
EDTDPRRLVQLLRQHSSPWQ (listed as Homo sapiens) [pep72] | 17.57 ± 2.31
ERARRPGL (listed as Homo sapiens) [pep32] | 11.98 ± 2.92
ERARRPGLL (listed as Homo sapiens) [pep22] | 13.56 ± 0.23
FIPKPDGLRPIVNMD (listed as Homo sapiens) [pep42] | 20.82 ± 1.93
FLYSSGDKEQLRPSFLLSSL (listed as Homo sapiens) [pep124] | 23.74 ± 3.62
FSVLNYERAR (listed as Homo sapiens) [pep18] | 18.7 ± 1.21

Sequence | cellular uptake, MFI (Mean Fluorescence Intensity)
FVLRVRAQDPPPELY (listed as Homo sapiens) [pep46] | 24.67 ± 2.02
GAAPEPERTPVGQGSWAHPG (listed as Homo sapiens) [pep62] | 14.55 ± 3.71
GARTFRREKRAERLTSRVKA (listed as Homo sapiens) [pep82] | 22.44 ± 3.32
GASVLGLDDI (listed as Homo sapiens) [pep14] | 10.51 ± 3.71
GLLGASVL (listed as Homo sapiens) [pep34] | 14.41 ± 3.44
GLLGASVLG (listed as Homo sapiens) [pep30] | 14.37 ± 1.73
GLLGASVLGL (listed as Homo sapiens) [pep4] | 28.35 ± 2.54
GVPLGLPAPGARRRGGSASR (listed as Homo sapiens) [pep118] | 14.69 ± 0.33
KLQSIGIRQHLKRVQ (listed as Homo sapiens) [pep39] | 21.4 ± 0.99
KLTRHRVTYVPLLGSLRTAQ (listed as Homo sapiens) [pep104] | 36.74 ± 1.11
KMSVRDCAWLRRSPGVGCVP (listed as Homo sapiens) [pep133] | 46.79 ± 1.92
KSVWSKLQSIGIRQH (listed as Homo sapiens) [pep48] | 26.51 ± 2.36
KTFLRTLVRGVPEYGCVVNL (listed as Homo sapiens) [pep94] | 117.76 ± 4.24
LCSLCYGDMENKLFAGIRRD (listed as Homo sapiens) [pep92] | 19.91 ± 0.51
LDDIHRAWRTFVLRV (listed as Homo sapiens) [pep45] | 203.77 ± 3.26
LFFYRKSVWSKLQSI [pep38] | 380.4 ± 2.6
LFSVLNYERARRPGLLGASV (listed as Homo sapiens) [pep83] | 24.57 ± 1.36
LGASVLGL (listed as Homo sapiens) [pep36] | 15.37 ± 2.65
LGPQGWRLVQRGDPAAFRAL (listed as Homo sapiens) [pep109] | 12.46 ± 1.32
LKRVQLRELSEAEVRQ (listed as Homo sapiens) [pep49] | 13.91 ± 0.51
LLGASVLGL (listed as Homo sapiens) [pep12] | 22 ± 2.6
LLVTPHLTHAKTFLRLTVRG (LLVTPHLTHAKTFLRTLVRG; listed as Homo sapiens) [pep151] | 23.52 ± 0.56
LRFIPKPDGLRPIVNMDYVV (listed as Homo sapiens) [pep81] | 29.69 ± 2.49
LRRVGDDVLVHLIARCALFV (LRRVGDDVLVHLLARCALFV; listed as Homo sapiens) [pep57] | 568.02 ± 3.01

Sequence | cellular uptake, MFI (Mean Fluorescence Intensity)
LSEAEVRQHREARPALLTSR (listed as Homo sapiens) [pep80] | 12.45 ± 0.46
LVAPSCAYWVCGPPLYQLGA (LVAPSCAYQVCGPPLYQLGA; listed as Homo sapiens) [pep58] | 19.87 ± 0.94
MPRAPRCRAV (listed as Homo sapiens) [pep107] | 23.11 ± 0.56
MPRAPRCRAVRSLLRSHYRE (listed as Homo sapiens) [pep50] | 2228.76 ± 3.68
NKLFAGIRRDGLLLRLVDDF (listed as Homo sapiens) [pep150] | 17.46 ± 0.24
NYERARRPGL (listed as Homo sapiens) [pep19] | 13.04 ± 3.41
PAAGVCAREKPQGSVAAPEE (listed as Homo sapiens) [pep71] | 16.61 ± 0.88
PALPSDFKTILD (listed as Homo sapiens) [pep106] | 12.45 ± 0.38
PGLLGASVL (listed as Homo sapiens) [pep27] | 9.89 ± 2.51
PPEAFTTSVRSYLPNTVTDA (listed as Homo sapiens) [pep113] | 16.09 ± 2.5
PQDRLTEVIASIIKP (listed as Homo sapiens) [pep47] | 15.85 ± 1.03
PYMRQFVAHLQETSPLRDAV (listed as Homo sapiens) [pep146] | 18.32 ± 1.82
QETSPLRDAVVIEQSSSLNE (listed as Homo sapiens) [pep89] | 13.54 ± 0.75
QMPAHGLFPWCGLLLDTRTL (listed as Homo sapiens) [pep96] | 308.53 ± 3.61
RARRPGLL (listed as Homo sapiens) [pep35] | 15.54 ± 1.38
RAWNHSVREAGVPLGLPAPG (listed as Homo sapiens) [pep60] | 15.79 ± 1.63
RFHACVLQLPFHQQVWKNPT (listed as Homo sapiens) [pep158] | 87.75 ± 2.51
RGDPAAFRALVAQCLVCVPW (listed as Homo sapiens) [pep52] | 16.67 ± 2.22
RGKSYVQCQGIPQGSILSTL (listed as Homo sapiens) [pep91] | 24.41 ± 2.79
RKTVVNFPVEDEALGGTAFV (listed as Homo sapiens) [pep95] | 10.92 ± 0.07
RLTSRVKAL (listed as Homo sapiens) [pep7] | 9.51 ± 2.95
RLVPPGLWGSRHNERRFLRN (listed as Homo sapiens) [pep131] | 32.51 ± 2.38
RPALLTSRL (listed as Homo sapiens) [pep6] | 15.81 ± 1.59
